Results taken from patent US11014920B2, “Factor XIIa inhibitors” (Merck Sharp & Dohme Corp., priority 2016, dated 2021).

Target: purified human Factor XIIa (Homo sapiens (Human), UniProt P00748)
Assay: Factor XIIa assay
Format: biochemical
Settings: substrate n-Acetyl-Lys-Pro-Arg-AFC 100 μM, pH 7.4, read-out: FXIIa IC50
Method: “FXIIa IC50(nm)” is Human Factor XIIa IC50 (nm).
The effectiveness of a compound of the present invention as an inhibitor of Coagulation Factor XIIa can be determined using a relevant purified serine protease, and an appropriate synthetic substrate. The rate of hydrolysis of the chromogenic or fluorogenic substrate by the relevant serine protease was measured both in the absence and presence of compounds of the present invention. Assays were conducted at room temperature or at 37° C. […] A decrease in the rate of fluorescence change in the presence of inhibitor is indicative of enzyme inhibition. Such methods are known to one skilled in the art. The results of this assay are expressed as the IC50, the inhibitor concentration causing a 50% decrease in Factor XIIa protease activity.
Factor XIIa activity determinations were made in 50 mM HEPES buffer containing 150 mM NaCl, 5 mM CaCl2, and 0.1% PEG 8000 (polyethylene glycol; JT Baker or Fisher Scientific) at pH 7.4. Determinations were made using purified human Factor XIIa at a final concentration of […] (Sekisui Diagnostics) and the synthetic substrate, n-Acetyl-Lys-Pro-Arg-AFC, TFA salt (Sigma # C6608) at a concentration of 100 μM.
Times required to achieve equilibration between enzyme and inhibitor were determined in control experiments. Initial velocities of product formation in the absence (Vo) or presence of inhibitor (Vi) were measured.

purified human Factor XIIa, sequence (P00748 373-615): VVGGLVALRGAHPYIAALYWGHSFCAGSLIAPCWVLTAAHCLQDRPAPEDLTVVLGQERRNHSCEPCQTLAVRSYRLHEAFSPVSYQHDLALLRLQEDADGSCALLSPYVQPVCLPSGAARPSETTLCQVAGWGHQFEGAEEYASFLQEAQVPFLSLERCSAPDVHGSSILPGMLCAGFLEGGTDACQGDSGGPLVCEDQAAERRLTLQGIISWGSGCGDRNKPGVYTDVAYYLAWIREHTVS
purified human Factor XIIa, sequence (P00748 20-372 partner): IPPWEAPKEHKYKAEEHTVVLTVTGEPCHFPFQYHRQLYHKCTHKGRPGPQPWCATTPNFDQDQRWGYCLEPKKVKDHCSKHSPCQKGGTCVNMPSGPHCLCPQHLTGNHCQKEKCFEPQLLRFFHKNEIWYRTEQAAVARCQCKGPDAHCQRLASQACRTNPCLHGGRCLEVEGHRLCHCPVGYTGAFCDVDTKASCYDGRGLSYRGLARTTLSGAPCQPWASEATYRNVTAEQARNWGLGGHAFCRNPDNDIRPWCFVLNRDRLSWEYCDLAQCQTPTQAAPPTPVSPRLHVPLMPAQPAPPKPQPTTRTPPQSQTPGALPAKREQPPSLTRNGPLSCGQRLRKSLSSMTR

`CN(C1CCCCC1)[C@H](CCCCNS(C)(=O)=O)C(=O)N1CC[C@@H](NC(=O)N2CCC3(CC2)CC3)[C@@H](C(=O)NCc2cccs2)C1` [Compound 30, N-{(3S,4R)-1-[N~2~- cyclohexyl-N~2~- methyl-N~6~- (methylsulfonyl)-D-lysyl]-3-[(thiophen-2-ylmethyl)carbamoyl]pi-peridin-4-yl}-6-azaspiro[2.5]octane-6-carboxamide] and `CS(=O)(=O)NCCCC[C@@H](NC1CCCCC1)C(=O)N1CC[C@@H](NC(=O)N2CCC3(CC2)CC3)[C@@H](C(=O)NCc2cccs2)C1` [Compound 23, N-{(3S,4R)-1-[N~2~- cyclohexyl-N~6~- (methylsulfonyl)-D-lysyl]-3-[(thiophen-2-ylmethyl)carbamoyl]pi-peridin-4-yl}-6-azaspiro[2.5]octane-6-carboxamide] are within 1.5-fold of each other in IC50: 50.1 nM for the first, 52.4 nM for the second.

Compared with `CS(=O)(=O)N(CCCC[C@@H](NC1CCCCC1)C(=O)N1CC[C@@H](NC(=O)N2CCC3(CC2)CC3)[C@@H](C(=O)NCc2cccs2)C1)CC(F)(F)F` [Compound 35, N-{(3S,4R)-1-[N~2~- cyclohexyl-N~6~- (methylsulfonyl)-N~6~- (2,2,2-trifluoroethyl)-D-lysyl]-3-[(thiophen-2-ylmethyl)carbamoyl]pi-peridin-4-yl}-6-azaspiro[2.5]octane-6-carboxamide], `CCS(=O)(=O)NCCCC[C@@H](NC1CCCCC1)C(=O)N1CC[C@@H](NC(=O)N2CCC3(CC2)CC3)[C@@H](C(=O)NCc2cccs2)C1` [Compound 21, N-{(3S,4R)-1-[N~2~- cyclohexyl-N~6~- (ethylsulfonyl)-D-lysyl]-3-[(thiophen-2-ylmethyl)carbamoyl]pi-peridin-4-yl}-6-azaspiro[2.5]octane-6-carboxamide] is 2.6-fold higher in IC50: 19.5 nM for the first, 51.2 nM for the second. The first is the more potent here.

Compared with `O=C(NCc1cccs1)[C@H]1CN(C(=O)[C@@H](CC2CCNCC2)NC2CCCCC2)CC[C@H]1NC(=O)N1CCC2(CC1)CC2` [Compound 20, N-{(3S,4R)-1-(N-cyclohexyl-3-piperidin-4-yl-D-alanyl)-3-[(thiophen-2-ylmethyl)carbamoyl]pi-peridin-4-yl}-6-azaspiro[2.5]octane-6-carboxamide], `O=C(NCc1cccs1)[C@H]1CN(C(=O)[C@@H](CCCCN2CCCS2(=O)=O)NC2CCCCC2)CC[C@H]1NC(=O)N1CCC2(CC1)CC2` [Compound 17, N-{(3S,4R)-1-[N-cyclohexyl-6-(1,1-dioxidoisothiazolidin-2-yl)-D-norleucyl]-3-[(thiophen-2-ylmethyl)carbamoyl]pi-peridin-4-yl}-6-azaspiro[2.5]octane-6-carboxamide] is 4.1-fold lower in IC50: 47.2 nM for the first, 11.5 nM for the second.

`CN(C)CCCC[C@@H](NC1CCCCC1)C(=O)N1CC[C@@H](NC(=O)N2CCCc3ccccc32)[C@@H](C(=O)NCc2cccs2)C1` [Compound 28, N-{(3S,4R)-1-(N~2~- cyclohexyl-N~6~,N~6~-dimethyl-D-lysyl)-3-[(thiophen-2-ylmethyl)carbamoyl]pi-peridin-4-yl}-3,4-dihydroquinoline-1(2H)-carboxamide] and `CN(C)CCCC[C@H](C(=O)N1CC[C@@H](NC(=O)N2CCCc3ccccc32)[C@@H](C(=O)NCc2cccs2)C1)N(C)C1CCCCC1` [Compound 27, N-{(3S,4R)-1-(N~2~- cyclohexyl-N~2~,N~6~,N~6~- trimethyl-D-lysyl)-3-[(thiophen-2-ylmethyl)carbamoyl]pi-peridin-4-yl}-3,4-dihydroquinoline-1(2H)-carboxamide] are within 1.5-fold of each other in IC50: 102 nM for the first, 110 nM for the second.

Going from `CN(C)CCCC[C@H](C(=O)N1CC[C@@H](NC(=O)c2ccc(F)cc2F)[C@@H](C(=O)NCc2cccs2)C1)N(C)C1CCCCC1` [Compound 7, (3S,4R)-1-(N~2~- cyclohexyl-N~2~,N~6~,N~6~- trimethyl-D-lysyl)-4-{[(2,4-difluoro-phenyl)carbonyl]amino}-N-(thiophen-2-ylmethyl)piperidine-3-carboxamide] to `CN(C)CCCC[C@H](C(=O)N1CC[C@@H](NC(=O)c2ccc(F)c(F)c2)[C@@H](C(=O)NCc2cccs2)C1)N(C)C1CCCCC1` [Compound 5, (3S,4R)-1-(N~2~- cyclohexyl-N~2~,N~6~,N~6~- trimethyl-D-lysyl)-4-{[(3,4-difluoro-phenyl)carbonyl]amino}-N-(thiophen-2-ylmethyl)piperidine-3-carboxamide], the IC50 rises from 18.7 nM to 71.6 nM (3.8-fold).

Going from `O=C(NCc1cccs1)[C@H]1CN(C(=O)[C@@H](CC2CCCCC2)NC2CCCCC2)CC[C@H]1NC(=O)N1CCCC2(CCNC2=O)C1` (stereo partly drawn) [Compound 36, N-((3S,4R)-1-((R)-3-cyclohexyl-2-(cyclohexylamino)pro-panoyl)-3-((thiophen-2-ylmethyl)carbamoyl)pi-peridin-4-yl)-1-oxo-2,7-diazaspiro[4.5]decane-7-carboxamide] to `CC(=O)OCCCC[C@@H](NC1CCCCC1)C(=O)N1CC[C@@H](NC(=O)N2CCC3(CC2)CC3)[C@@H](C(=O)NCc2cccs2)C1` [Compound 26, (5R)-6-{(3S,4R)-4-[(6-azaspiro[2.5]oct-6-ylcarbonyl)amino]-3-[(thiophen-2-ylmethy)carbamoyl]pi-peridin-1-yl}-5-(cyclohexylamino)-6-oxohexyl acetate], the IC50 falls from 428 nM to 65.9 nM (6.5-fold). The second is the more potent here.

First: CN(C)CCCC[C@@H](NC1CCC2(CC1)CCN(Cc1ccccc1)C2)C(=O)N1CC[C@@H](NC(=O)N2CCC3(CC2)CC3)[C@@H](C(=O)NCc2cccs2)C1 (stereo partly drawn) [Compound 31, N-{(3S,4R)-1-[N~2~- (2-benzyl-2-azaspiro[4.5]dec-8-yl)-N~6~,N~6~-dimethyl-D-lysyl]-3-[(thiophen-2-ylmethyl)carbamoyl]pi-peridin-4-yl}-6-azaspiro[2.5]octane-6-carboxamide]
Second: CS(=O)(=O)NCCCC[C@@H](NC1CCC2(CC1)CCN(Cc1ccccc1)C2)C(=O)N1CC[C@@H](NC(=O)N2CCC3(CC2)CC3)[C@@H](C(=O)NCc2cccs2)C1 (stereo partly drawn) [Compound 18, N-{(3S,4R)-1-[N~2~- (2-benzyl-2-azaspiro[4.5]dec-8-yl)-N~6~-(methylsulfonyl)-D-lysyl]-3-[(thiophen-2-ylmethyl)carbamoyl]pi-peridin-4-yl}-6-azaspiro[2.5]octane-6-carboxamide]
The IC50 of the first is 19-fold lower: 1.5 nM for the first, 29.2 nM for the second.

Going from `Cc1csc(CNC(=O)[C@H]2CN(C(=O)[C@@H](CCCCN)NC3CCCCC3)CC[C@H]2NC(=O)N2CCC3(CC2)CC3)c1` [Compound 15, N-[(3S,4R)-1-(N~2~- cyclohexyl-D-lysyl)-3-{[(4-methylthiophen-2-yl)methyl]carbamoyl}pi-peridin-4-yl]-6-azaspiro[2.5]octane-6-carboxamide] to `NCCCC[C@@H](NC1CCCCC1)C(=O)N1CC[C@@H](NC(=O)N2CCC3(CC2)CC3)[C@@H](C(=O)NCc2ccc(CN)cc2)C1` [Compound 14, N-[(3S,4R)-3-{[4-(amino-methyl)benzyl]carbamoyl}-1-(N~2~-cyclohexyl-D-lysyl)piperidin-4-yl]-6-azaspiro[2.5]octane-6-carboxamide], the IC50 falls from 60.2 nM to 18.7 nM (3.2-fold).

`Cc1cnc(C(=O)N[C@@H]2CCN(C(=O)[C@@H](CC3CCCCC3)NC3CCCCC3)C[C@@H]2C(=O)NCc2ccc3[nH]cc(Cl)c3c2)s1` [Compound 1, (3S,4R)-N-[(3-chloro-1H-indol-5-yl)methyl]-1-(N,3-dicyclohexyl-D-alanyl)-4-{[(5-methyl-1,3-thiazol-2-yl)carbonyl]amino}pi-peridine-3-carboxamide] and `Cc1cnc(C(=O)N[C@@H]2CCN(C(=O)[C@@H](CC3CCCCC3)NC3CCCCC3)C[C@@H]2C(=O)NCc2ccnc(N)c2)s1` [Compound 4, (3S,4R)-N-[(2-aminopyridin-4-yl)methyl]-1-(N,3-dicyclohexyl-D-alanyl)-4-{[(5-methyl-1,3-thiazol-2-yl)carbonyl]amino}pi-peridine-3-carboxamide] are within 1.5-fold of each other in IC50: 49.2 nM for the first, 65.1 nM for the second.

First: CN(C)CCCC[C@H](C(=O)N1CC[C@@H](NC(=O)c2cc(F)c(F)cc2F)[C@@H](C(=O)NCc2cccs2)C1)N(C)C1CCCCC1 [Compound 10, (3S,4R)-1-(N~2~- cyclohexyl-N~2~,N~6~,N~6~- trimethyl-D-lysyl)-N-(thiophen-2-ylmethyl)-4-{[(2,4,5-trifluoro-phenyl)carbonyl]amino}pi-peridine-3-carboxamide]
Second: CN(C)CCCC[C@H](C(=O)N1CC[C@@H](NC(=O)c2ccc(Cl)cc2)[C@@H](C(=O)NCc2cccs2)C1)N(C)C1CCCCC1 [Compound 9, (3S,4R)-4-{[(4-chloro-phenyl)carbonyl]amino}-1-(N~2~- cyclohexyl-N~2~,N~6~,N~6~- trimethyl-D-lysyl)-N-(thiophen-2-ylmethyl)piperidine-3-carboxamide]
The IC50 of the first is 2.5-fold higher: 29.2 nM for the first, 11.5 nM for the second.

`Cc1cnc(C(=O)N[C@@H]2CCN(C(=O)[C@@H](CCCCN)NC3CCCCC3)C[C@@H]2C(=O)NCc2cccs2)s1` [Compound 3, (3S,4R)-1-(N~2~- cyclohexyl-D-lysyl)-4-{[(5-methyl-1,3-thiazol-2-yl)carbonyl]amino}-N-(thiophen-2-ylmethyl)piperidine-3-carboxamide] and `CC(=O)NCCCC[C@@H](NC1CCCCC1)C(=O)N1CC[C@@H](NC(=O)N2CCC3(CC2)CC3)[C@@H](C(=O)NCc2cccs2)C1` [Compound 24, N-{(3S,4R)-1-(N~6~- acetyl-N~2~- cyclohexyl-D-lysyl)-3-[(thiophen-2-ylmethyl)carbamoyl]pi-peridin-4-yl}-6-azaspiro[2.5]octane-6-carboxamide] are within 1.5-fold of each other in IC50: 109 nM for the first, 108 nM for the second.
